From patent US9980943B2, “Methods of treating muscular dystrophy” (BOARD OF REGENTS OF THE NEVADA SYSTEM OF HIGHER EDUCATION, …, priority 2013, dated 2018)

Legend:
Assay type in all cases: cell-based, mouse
[1] = test system: β-galactosidase in CMV-LacZ C2C12 myoblasts; test: CMV-LacZ secondary screen in C2C12 myoblasts (β-Gal stabilizing assay); conditions: for CMV-LACZ in Myoblasts (β-galactosidase activity relative to DMSO): CMV-LacZ C2C12 myoblasts; for CMV-LACZ in Myoblasts, value relative to DMSO: SU9516 analogs, C2C12 CMV-LacZ, N=2
Procedure, shortened: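 CMV-LacZ C2C12 line (clonal, FDG-screened); myoblasts/myotubes dosed 0.5–40 μM (0.5, 1, 5, 10, 20, 40 μM); n=2 per point; β-gal stabilization read-out.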

[2] = test system: α7 integrin (LacZ reporter in α7βgal+/− myoblasts); test: Myoblast α7+/LacZ integrin FDG assay (Burkin assay in myoblasts, 96-well); conditions: 96-well; for Burkin Assay in Myoblasts, signal relative to DMSO: α7+/LacZ myoblasts; for Burkin Assay in Myoblasts, value relative to DMSO: SU9516 analogs, N=3-6
[3] = test system: α7 integrin (LacZ reporter in α7+/LacZ myotubes); test: Myotube α7 integrin FDG assay (Burkin assay in myotubes, 96-well); conditions: for Burkin Assay in Myotubes, value relative to DMSO: SU9516 analogs, 96-well, N=3-6
[4] = test system: β-galactosidase in CMV-LacZ C2C12 myotubes; test: CMV-LacZ secondary screen in C2C12 myotubes (β-Gal stabilizing assay); conditions: for CMV-LACZ in Myotubes, signal relative to DMSO: C2C12 CMV-LacZ myotubes, fold relative to DMSO; for CMV-LACZ in Myotubes, value relative to DMSO: SU9516 analogs, C2C12 CMV-LacZ, N=2
Procedure, shortened: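 Dose-response runs at 0.5–40 μM (0.5, 1, 5, 10, 20, 40 μM; N=2 per point) used a clonal C2C12 line carrying CMV-LacZ. Cells were assayed as myoblasts or as differentiated myotubes, and β-galactosidase levels were read with the FDG fluorogenic substrate.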

## Fc1ccc(-c2ccnc3nc(N4CCN(c5ccccc5)CC4)nn23)cc1 [MLS000546316-01]
[1]; 0.5 uM
  CMV-LACZ in Myoblasts (β-galactosidase activity relative to DMSO): 1.0623
[1]; 1 uM
  CMV-LACZ in Myoblasts (β-galactosidase activity relative to DMSO): 1.1373
[1]; 5 uM
  CMV-LACZ in Myoblasts (β-galactosidase activity relative to DMSO): 0.8090
[1]; 10 uM
  CMV-LACZ in Myoblasts (β-galactosidase activity relative to DMSO): 1.2440
[1]; 20 uM
  CMV-LACZ in Myoblasts (β-galactosidase activity relative to DMSO): 1.3463
[1]; 40 uM
  CMV-LACZ in Myoblasts (β-galactosidase activity relative to DMSO): 1.5049
[2]; 0.5 uM
  Burkin Assay in Myoblasts, signal relative to DMSO: 1.159
[2]; 1 uM
  Burkin Assay in Myoblasts, signal relative to DMSO: 1.223
[2]; 5 uM
  Burkin Assay in Myoblasts, signal relative to DMSO: 1.164
[2]; 10 uM
  Burkin Assay in Myoblasts, signal relative to DMSO: 1.123
[2]; 20 uM
  Burkin Assay in Myoblasts, signal relative to DMSO: 1.026
[2]; 40 uM
  Burkin Assay in Myoblasts, signal relative to DMSO: 1.027
[3]; 0.5 uM
  Burkin Assay in Myotubes, α7 integrin LacZ reporter signal relative to DMSO: 1.137
[3]; 1 uM
  Burkin Assay in Myotubes, α7 integrin LacZ reporter signal relative to DMSO: 1.174
[3]; 5 uM
  Burkin Assay in Myotubes, α7 integrin LacZ reporter signal relative to DMSO: 1.066
[3]; 10 uM
  Burkin Assay in Myotubes, α7 integrin LacZ reporter signal relative to DMSO: 1.099
[3]; 20 uM
  Burkin Assay in Myotubes, α7 integrin LacZ reporter signal relative to DMSO: 0.8571
[3]; 40 uM
  Burkin Assay in Myotubes, α7 integrin LacZ reporter signal relative to DMSO: 1.176
[4]; 0.5 uM
  CMV-LACZ in Myotubes, signal relative to DMSO: 1.2590
[4]; 1 uM
  CMV-LACZ in Myotubes, signal relative to DMSO: 1.0019
[4]; 5 uM
  CMV-LACZ in Myotubes, signal relative to DMSO: 1.0040
[4]; 10 uM
  CMV-LACZ in Myotubes, signal relative to DMSO: 1.0825
[4]; 20 uM
  CMV-LACZ in Myotubes, signal relative to DMSO: 1.0190
[4]; 40 uM
  CMV-LACZ in Myotubes, signal relative to DMSO: 1.2640

## O=C1Nc2ccccc2/C1=C\c1cccn1-c1ccc(OC(F)(F)F)cc1 [MLS000546982-01]
[1]; 0.5 uM
  CMV-LACZ in Myoblasts, value relative to DMSO: 1.0877
[1]; 1 uM
  CMV-LACZ in Myoblasts, value relative to DMSO: 1.2640
[1]; 5 uM
  CMV-LACZ in Myoblasts, value relative to DMSO: 0.9273
[1]; 10 uM
  CMV-LACZ in Myoblasts, value relative to DMSO: 1.0785
[1]; 20 uM
  CMV-LACZ in Myoblasts, value relative to DMSO: 0.9512
[1]; 40 uM
  CMV-LACZ in Myoblasts, value relative to DMSO: 1.3937
[2]; 0.5 uM
  Burkin Assay in Myoblasts, value relative to DMSO: 0.8799
[2]; 1 uM
  Burkin Assay in Myoblasts, value relative to DMSO: 1.155
[2]; 5 uM
  Burkin Assay in Myoblasts, value relative to DMSO: 1.272
[2]; 10 uM
  Burkin Assay in Myoblasts, value relative to DMSO: 1.078
[2]; 20 uM
  Burkin Assay in Myoblasts, value relative to DMSO: 1.053
[2]; 40 uM
  Burkin Assay in Myoblasts, value relative to DMSO: 0.8883
[3]; 0.5 uM
  Burkin Assay in Myotubes, value relative to DMSO: 1.048
[3]; 1 uM
  Burkin Assay in Myotubes, value relative to DMSO: 1.038
[3]; 5 uM
  Burkin Assay in Myotubes, value relative to DMSO: 1.145
[3]; 10 uM
  Burkin Assay in Myotubes, value relative to DMSO: 0.9962
[3]; 20 uM
  Burkin Assay in Myotubes, value relative to DMSO: 0.8556
[3]; 40 uM
  Burkin Assay in Myotubes, value relative to DMSO: 0.7111
[4]; 0.5 uM
  CMV-LACZ in Myotubes, value relative to DMSO: 1.0438
[4]; 1 uM
  CMV-LACZ in Myotubes, value relative to DMSO: 0.8467
[4]; 5 uM
  CMV-LACZ in Myotubes, value relative to DMSO: 1.0159
[4]; 10 uM
  CMV-LACZ in Myotubes, value relative to DMSO: 1.1265
[4]; 20 uM
  CMV-LACZ in Myotubes, value relative to DMSO: 1.0160
[4]; 40 uM
  CMV-LACZ in Myotubes, value relative to DMSO: 1.3290

## CCO/C(C)=C1\C(=O)Nc2ccccc21 [MLS000554109-01]
[1]; 0.5 uM
  CMV-LACZ in Myoblasts, value relative to DMSO: 1.1083
[1]; 1 uM
  CMV-LACZ in Myoblasts, value relative to DMSO: 1.1863
[1]; 5 uM
  CMV-LACZ in Myoblasts, value relative to DMSO: 0.9003
[1]; 10 uM
  CMV-LACZ in Myoblasts, value relative to DMSO: 0.9457
[1]; 20 uM
  CMV-LACZ in Myoblasts, value relative to DMSO: 0.9853
[1]; 40 uM
  CMV-LACZ in Myoblasts, value relative to DMSO: 0.9650
[2]; 0.5 uM
  Burkin Assay in Myoblasts, value relative to DMSO: 0.9929
[2]; 1 uM
  Burkin Assay in Myoblasts, value relative to DMSO: 1.049
[2]; 5 uM
  Burkin Assay in Myoblasts, value relative to DMSO: 1.067
[2]; 10 uM
  Burkin Assay in Myoblasts, value relative to DMSO: 1.095
[2]; 20 uM
  Burkin Assay in Myoblasts, value relative to DMSO: 0.9611
[2]; 40 uM
  Burkin Assay in Myoblasts, value relative to DMSO: 0.8937
[3]; 0.5 uM
  Burkin Assay in Myotubes, value relative to DMSO: 0.8839
[3]; 1 uM
  Burkin Assay in Myotubes, value relative to DMSO: 1.054
[3]; 5 uM
  Burkin Assay in Myotubes, value relative to DMSO: 0.9611
[3]; 10 uM
  Burkin Assay in Myotubes, value relative to DMSO: 0.9874
[3]; 20 uM
  Burkin Assay in Myotubes, value relative to DMSO: 0.8426
[3]; 40 uM
  Burkin Assay in Myotubes, value relative to DMSO: 1.048
[4]; 0.5 uM
  CMV-LACZ in Myotubes, value relative to DMSO: 1.2682
[4]; 1 uM
  CMV-LACZ in Myotubes, value relative to DMSO: 0.9491
[4]; 5 uM
  CMV-LACZ in Myotubes, value relative to DMSO: 1.1559
[4]; 10 uM
  CMV-LACZ in Myotubes, value relative to DMSO: 1.1355
[4]; 20 uM
  CMV-LACZ in Myotubes, value relative to DMSO: 0.9100
[4]; 40 uM
  CMV-LACZ in Myotubes, value relative to DMSO: 0.9950
